The record followed here is patent US20240016831A1 (priority 2020, published 2024).

The format of this series is physicochemical. To be noted: pH 3.

For the compound `OC[C@@H](O)[C@@H](O)[C@H](O)[C@H](O)CO` [mannitol, D-mannitol], the “amounts of nitric oxide generated (cumulative NO evolved)” value is given as “markedly greater amounts of nitric oxide”.
With `OC[C@@H](O)[C@@H](O)[C@H](O)[C@@H](O)CO` [sorbitol], the “amounts of nitric oxide generated (cumulative NO evolved)” value is “markedly greater amounts of nitric oxide”.
